Among the data in ChEMBL document CHEMBL1151215, “Isotsaokoin, an antifungal agent from Amomum tsao-ko” (2004) are Activity and zone of inhibition values, retold here.

The subject of experiment [1] is Trichophyton mentagrophytes. Kind of experiment: Antifungal activity against Trichophyton mentagrophytes KCTC 6085 at 60 ug/disk after 4 days by paper-disk agar diffusion assay. Format: functional, organism-based.
The subject of experiment [2] is Trichophyton mentagrophytes. Kind of experiment: Antifungal activity against Trichophyton mentagrophytes KCTC 6085 at 40 ug/disk after 4 days by paper-disk agar diffusion assay. Format: functional. Conditions: KCTC 6085, 96 h, read-out: IZ.
The subject of experiment [3] is Trichophyton mentagrophytes. As to the kind of experiment: Antifungal activity against Trichophyton mentagrophytes KCTC 6085 at 20 ug/disk after 4 days by paper-disk agar diffusion assay. Format: functional. Conditions: KCTC 6085, 96 h, read-out: IZ. (In agar diffusion tests the substance spreads into inoculated agar from a disc or well.)

SMILES strings stand for the structures. Active and inactive are the calls of the source. The rule behind the calls is not given here.

For the compound `OCC1=CC[C@@H](O)[C@H]2CCC[C@@H]12`, the result in experiment [1] was inactive.

As for `O=CC1=CC[C@@H](O)[C@@H]2CCC[C@H]12` (relative stereo) [ISOTSAOKOIN], the zone of inhibition at 40 µg/disc in experiment [2] was 2 mm. In addition, in experiment [3], the zone of inhibition at 20 µg/disc is 1.5 mm.

`C[C@@H]1[C@H](O)[C@@H](C)/C=C/C=C/C=C/C=C/C=C/C=C/C=C/[C@H](O[C@@H]2O[C@H](C)[C@@H](O)[C@H](N)[C@@H]2O)C[C@@H]2O[C@](O)(C[C@@H](O)C[C@@H](O)[C@H](O)CC[C@@H](O)C[C@@H](O)CC(=O)O[C@H]1C)C[C@H](O)[C@H]2C(=O)O` [AMPHOTERICIN B]: the zone of inhibition at 40 µg/disc in experiment [2] stood at 3 mm. The zone of inhibition at 20 µg/disc in experiment [3] is 2.5 mm.
